Structures can show the parent of a compound that is named as a salt. Bounds are passed on as bounds.

Results on one compound are retold here after US4746672A, “Oxides of 1,2,5-thiadiazoles, their use in pharmaceutical compositions” (ICI Americas Inc., priority 1982, dated 1988).

In the test the target is T1, histamine H-2 receptor (Oryctolagus cuniculus, UniProt G1TWL8).
T1 construct: The mixture of glands and cells is collected by centrifugation; from tissue; host or cells: dispersed gastric glands and cells (parietal cells) from gastric mucosa of New Zealand white rabbit
T1 sequence (G1TWL8 1-367): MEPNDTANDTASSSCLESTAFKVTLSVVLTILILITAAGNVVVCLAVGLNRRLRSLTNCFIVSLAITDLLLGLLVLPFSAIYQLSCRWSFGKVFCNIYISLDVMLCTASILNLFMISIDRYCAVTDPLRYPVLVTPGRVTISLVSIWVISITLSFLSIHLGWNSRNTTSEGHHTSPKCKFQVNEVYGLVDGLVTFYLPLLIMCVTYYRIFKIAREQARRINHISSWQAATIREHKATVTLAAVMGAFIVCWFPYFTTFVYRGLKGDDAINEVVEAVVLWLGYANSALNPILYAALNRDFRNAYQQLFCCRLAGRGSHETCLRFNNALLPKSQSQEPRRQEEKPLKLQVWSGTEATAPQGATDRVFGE
The test is described as follows: aminopyrine test: inhibition of histamine-induced uptake of aminopyrine into the acid space of parietal cells. Format: cell-based, New Zealand white rabbit. As to conditions: rabbit gastric mucosa glands/cells; uptake stimulated by histamine 10^-5 M and ICI 63197 5×10^-7 M; read-out: concentration giving 50% inhibition of uptake of aminopyrine. Here is the method:
The aminopyrine test is carried out as follows:
Gastric mucosa from the New Zealand white rabbit is removed from the underlying muscle and washed in Buffer 1 which contains per liter: NaCl (8.007 g.), KCl (0.201 g.), Na2 HPO4 (0.113 g.), KH2 PO4 (0.204 g.), CaCl2.2H2 O (0.132 g.) MgCl2 (0.101 g.) and glucose (1 g.), adjusted to pH 7.4 with NaOH. The tissue is finely chopped, suspended in Buffer 1 and washed three times with Buffer 1. The tissue is then suspended in a dispersion medium of collagenase (Sigma Chemical Co., Type V; 100 mg.) and bovine serum albumin (Miles Laboratories Ltd., Fraction V; 100 mg.) in Buffer 1 (100 ml.) at 50 ml. per 10 g. net weight of tissue and incubated at 30° C. and pH 7.4 maintained by continuous monitoring, with stirring under an oxygen atmosphere. After 30 minutes the tissue is allowed to settle and the supernatant liquid is removed. Fresh dispersion medium (50 ml. per 10 g. wet weight of tissue) is added and incubation is continued with the tissue being largely dispersed into glands and whole cells after 40-60 minutes. Any remaining large pieces of tissue are removed by filtration through nylon mesh. […] The C^14 aminopyrine retained by the tissue is measured on a scintillation counter and the degree of inhibition of uptake by the test compound is calculated by reference to a control sample. […]

For `NC(=NCC(F)(F)F)Nc1nc(CSCCNc2n[s+]([O-])nc2N)cs1` (stereo not shown) [Example 1, 3-amino-4-[2-(2-[2,2,2-trifluoroethyl]guanidino)thiazol-4-ylmethylthio]ethylamino-1,2,5-thiadiazole 1-oxide maleate], the IC50 was less than 3 µM.
